# Results from patent publication US10954232B2, “Pyrazole derivative as ALK5 inhibitor and uses thereof” (HANMI PHARMACEUTICAL CO., LTD., priority 2016, dated 2021).
# Molecular target: T1, ALK5 kinase (Homo sapiens, UniProt P36897)
# T1 construct: GST; purchased Thermo Fisher Scientific Solutions
# T1 sequence (P36897 34-503): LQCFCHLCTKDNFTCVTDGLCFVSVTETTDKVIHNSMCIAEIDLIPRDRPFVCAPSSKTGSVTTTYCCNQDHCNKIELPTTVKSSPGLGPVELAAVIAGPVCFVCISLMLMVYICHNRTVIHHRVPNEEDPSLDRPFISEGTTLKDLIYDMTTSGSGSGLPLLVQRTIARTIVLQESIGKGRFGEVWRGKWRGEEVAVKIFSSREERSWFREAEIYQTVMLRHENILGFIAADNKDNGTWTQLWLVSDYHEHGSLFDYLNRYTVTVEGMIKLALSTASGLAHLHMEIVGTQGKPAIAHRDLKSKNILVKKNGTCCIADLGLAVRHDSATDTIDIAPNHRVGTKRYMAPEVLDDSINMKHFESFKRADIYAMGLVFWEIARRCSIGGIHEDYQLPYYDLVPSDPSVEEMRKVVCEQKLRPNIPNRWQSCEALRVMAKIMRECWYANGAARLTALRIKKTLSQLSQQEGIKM
# Test: Activity inhibition test on ALK5 enzyme (LanthaScreen Eu binding kinase assay)
# Conditions: kinase tracer 178, 60 minutes at room temperature
# Summary of the method: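 TR-FRET tracer-displacement format with final 5 nM ALK5, 2 nM Eu-GST antibody and 10 nM kinase tracer 178. Compound dilution series ran 1 μM–0.0001 μM, incubated 60 min at room temperature with stirring. Fluorescence was read ([…]), and IC50 came from percent inhibition versus control.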
row,IC50 [nM],Compound
1,~10,Cc1cccc(-n2nc(C(=O)Nc3ccc(OC(C)C)cc3)cc2-c2ccc3ncnn3c2)n1 [Example 94]
2,25,"COCCOc1ccc(NC(=O)c2cc(-c3ccc4ncnn4c3)n(-c3cccc(C)n3)n2)cc1 [Example 95, 5-([1,2,4]triazolo[1,5-α]pyridin-6-yl)-N-(4-(2-methoxyethoxy)phenyl)-1-(6-methylpyridin-2-yl)-1H-pyrazole-3-carboxyamide]"
3,3.5,"Cc1cccc(-n2nc(C(=O)Nc3ccc4c(c3)OCO4)cc2-c2ccc3ncnn3c2)n1 [Example 96, 5-([1,2,4]triazolo[1,5-α]pyridin-6-yl)-N-(benzo[d][1,3]dioxol-5-yl)-1-(6-methylpyridin-2-yl)-1H-pyrazole-3-carboxyamide]"
4,10 to 100,"COc1ccc(NC(=O)c2cc(-c3ccc4ncnn4c3)n(-c3cccc(C)n3)n2)c(F)c1 [Example 97, 5-([1,2,4]triazolo[1,5-α]pyridin-6-yl)-N-(2-fluoro-4-methoxyphenyl)-1-(6-methylpyridin-2-yl)-1H-pyrazole-3-carboxyamide]"
5,5.3,"COc1ccc(NC(=O)c2cc(-c3ccc4ncnn4c3)n(-c3cccc(C)n3)n2)cc1F [Example 98, 5-([1,2,4]triazolo[1,5-α]pyridin-6-yl)-N-(3-fluoro-4-methoxyphenyl)-1-(6-methylpyridin-2-yl)-1H-pyrazole-3-carboxyamide]"
6,~10,"Cc1cccc(-n2nc(C(=O)Nc3ccccc3OC(F)(F)F)cc2-c2ccc3ncnn3c2)n1 [Example 99, 5-([1,2,4]triazolo[1,5-α]pyridin-6-yl)-1-(6-methylpyridin-2-yl)-N-(2-(trifluoromethoxy)phenyl)-1H-pyrazole-3-carboxyamide]"
7,10 to 100,"Cc1cccc(-n2nc(C(=O)Nc3cccc(OC(F)(F)F)c3)cc2-c2ccc3ncnn3c2)n1 [Example 100, 5-([1,2,4]triazolo[1,5-α]pyridin-6-yl)-1-(6-methylpyridin-2-yl)-N-(3-(trifluoromethoxy)phenyl)-1H-pyrazole-3-carboxyamide]"

# The next lines start with the compound.
row,Compound,IC50 [nM]
1,"CCCCNc1ccc(NC(=O)c2cc(-c3ccc4ncsc4c3)n(-c3cccc(C)n3)n2)cc1 [Example 87, 5-(benzo[d]thiazol-6-yl)-N-(4-(butylamino)phenyl)-1-(6-methylpyridin-2-yl)-1H-pyrazole-3-carboxyamide]",9.1
2,"Cc1cccc(-n2nc(C(=O)Nc3ccc(NC4CC4)cc3)cc2-c2ccc3ncsc3c2)n1 [Example 88, 5-(benzo[d]thiazol-6-yl)-N-(4-(cyclopropylamino)phenyl)-1-(6-methylpyridin-2-yl)-1H-pyrazole-3-carboxyamide]",3.5
3,"Cc1cccc(-n2nc(C(=O)Nc3ccc(S(C)(=N)=O)cc3)cc2-c2ccc3ncsc3c2)n1 (centres unmarked) [Example 89, 5-(benzo[d]thiazol-6-yl)-1-(6-methylpyridin-2-yl)-N-(4-(S-methylsulfonimidoyl)phenyl)-1H-pyrazole-3-carboxyamide]",3.5
4,"COc1ccccc1NC(=O)c1cc(-c2ccc3ncnn3c2)n(-c2cccc(C)n2)n1 [Example 90, 5-([1,2,4]triazolo[1,5-α]pyridin-6-yl)-N-(2-methoxyphenyl)-1-(6-methylpyridin-2-yl)-1H-pyrazole-3-carboxyamide]",5
5,"COc1cccc(NC(=O)c2cc(-c3ccc4ncnn4c3)n(-c3cccc(C)n3)n2)c1 [Example 91, 5-([1,2,4]triazolo[1,5-α]pyridin-6-yl)-N-(3-methoxyphenyl)-1-(6-methylpyridin-2-yl)-1H-pyrazole-3-carboxyamide]",10 to 100
6,"COc1ccccc1NC(=O)c1cc(-c2ccc3ncnn3c2)n(-c2cccc(C)n2)n1 [Example 92, 5-([1,2,4]triazolo[1,5-α]pyridin-6-yl)-N-(2-methoxyphenyl)-1-(6-methylpyridin-2-yl)-1H-pyrazole-3-carboxyamide]",10 to 100
7,"Cc1cccc(-n2nc(C(=O)Nc3ccc(O)cc3)cc2-c2ccc3ncnn3c2)n1 [Example 93, 5-([1,2,4]triazolo[1,5-α]pyridin-6-yl)-N-(4-hydroxyphenyl)-1-(6-methylpyridin-2-yl)-1H-pyrazole-3-carboxyamide]",3.9
